Measurements reported in patent US20040266871A1, “Methods for treating alzheimer's disease using quinaldoyl-amine derivatives of oxo-and hydroxy-substituted hydrocarbons” (priority 2001, published 2004).

Work on CC(C)(C)OC(=O)NN(C[C@H](O)[C@H](Cc1ccccc1)NC(=O)OCc1ccccc1)C1CCCCC1 [Example 31, t-Butyl 3-cyclohexyl-3-[(2S, 3S)-2-hydroxy-3-(phenylmethoxycarbonyl)amino-4-phenylbutyl]carbazate] yielded a melting point of 142 to 143 °C.
